From US20140135221A1, “Desiccant and Defoliant Composition for Crops” (NIHON NOHYAKU CO., LTD, priority 2011, published 2014) come the findings set out here.

SMILES strings stand for the structures.

The assay relates to seed potatoes (variety: danshaku). The experiment in a line: Desiccation and defoliation effect on potted potato plants in greenhouse (Test Example 1). In kind it is in vivo. The settings on record: potato foliage; for desiccation and defoliation effect, 4 DAT: 4 days after treatment; for desiccation and defoliation effect, 7 DAT: 7 days after treatment; for desiccation and defoliation effect, 10 DAT: 10 days after treatment; for desiccation and defoliation effect, 16 DAT: 16 days after treatment. The procedure: In 5100-ml plastic pots filled up with soil (clay loam), seed potatoes (variety: danshaku) were planted and cultivated in a greenhouse. When the foliage was fully developed, specifically, at 30 days after flowering, the test plants were treated with the predetermined effective dosage (expressed as the amounts of active ingredients in g/ha) of the composition of the present invention in a liquid form, and further cultivated in the greenhouse. In the period from 4 days to 16 days after the treatment, the desiccation effect was surveyed and the herbicidal effect was evaluated according to the criterion described below.
Regarding the criterion for evaluating the desiccation and defoliation effect, the extent of desiccation and defoliation was graded from 0% (no effect) to 100% (completely desiccated).

Take `Cc1nn(-c2cc(CC(Cl)C(=O)O)c(Cl)cc2F)c(=O)n1C(F)F` (stereo not shown) [Carfentrazone]: under “dosage 32 g.a.i./ha”, the “desiccation and defoliation effect, 4 DAT” value came to 18%; the “desiccation and defoliation effect, 7 DAT” value amounted to 22%; the “desiccation and defoliation effect, 10 DAT” value is 33%; the “desiccation and defoliation effect, 16 DAT” value turned out to be 40%. Besides, where the note is “dosage 64 g.a.i./ha”, the “desiccation and defoliation effect, 4 DAT” value is 45%; the “desiccation and defoliation effect, 7 DAT” value is listed as 52%; the “desiccation and defoliation effect, 10 DAT” value is listed as 58%; the “desiccation and defoliation effect, 16 DAT” value was 70%.
Turning to `CCOC(=O)COc1cc(-c2nn(C)c(OC(F)F)c2Cl)c(F)cc1Cl` [Pyraflufen-ethyl], for the setting “dosage 10 g.a.i./ha”, the “desiccation and defoliation effect, 4 DAT” value is on record as 38%; the “desiccation and defoliation effect, 7 DAT” value is on record as 42%; the “desiccation and defoliation effect, 10 DAT” value turned out to be 45%; the “desiccation and defoliation effect, 16 DAT” value was determined as 58%. Also, where the note is “dosage 20 g.a.i./ha”, the “desiccation and defoliation effect, 4 DAT” value amounted to 48%; the “desiccation and defoliation effect, 7 DAT” value is on record as 50%; the “desiccation and defoliation effect, 10 DAT” value is listed as 55%; the “desiccation and defoliation effect, 16 DAT” value was 68%.
